The target of test [1] is T1, BCR-NTRK1 BaF3 cells (Homo sapiens, UniProt P04629).
T1 construct: fused on or other part: P11274 (Breakpoint cluster region protein)
The test can be described thus: BaF3 BCR-NTRK1 cell proliferation assay (ATPlite). In kind it is cell-based. The following applies: read-out: Inhibition of Cell Proliferation IC50, BCR/BaF3 TrkA. The method in brief:
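Proliferation was run for 3 days at 37 °C against 8-point 1:3 titrations with 10 μM as the top final concentration. Seeding was 10,000 cells/well for BaF3 BCR-fusion lines, grown without IL-3, and 25,000 cells/well for MV-4-11. IC50 was derived from ATPlite luminescence read as cell number.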

Test [2] concerns the target c-Kit kinase (Homo sapiens, UniProt P10721). The experiment in a line: c-Kit kinase biochemical activity assay (AlphaScreen, biotin-(E4Y)10 phosphorylation). The following applies: 100 μM ATP; read-out: Biochemical Inhibition IC50 Kit. In a few lines:
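AlphaScreen read-out (streptavidin donor, anti-phosphotyrosine PY20 acceptor beads, EDTA stop) of c-Kit activity. Reaction: 0.75 ng kinase, 100 µM ATP, 30 nM biotin-(E4Y)10, 25 mM HEPES pH 7.5, 2 mM MgCl2, 2 mM MnCl2, 5% DMSO, 1 h room temperature. IC50 derived over an 8-point, two-fold dilution series.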
For orientation: In Alpha technology, singlet oxygen from a donor bead excites a nearby acceptor bead.

Sequence of c-Kit kinase (P10721 26-976): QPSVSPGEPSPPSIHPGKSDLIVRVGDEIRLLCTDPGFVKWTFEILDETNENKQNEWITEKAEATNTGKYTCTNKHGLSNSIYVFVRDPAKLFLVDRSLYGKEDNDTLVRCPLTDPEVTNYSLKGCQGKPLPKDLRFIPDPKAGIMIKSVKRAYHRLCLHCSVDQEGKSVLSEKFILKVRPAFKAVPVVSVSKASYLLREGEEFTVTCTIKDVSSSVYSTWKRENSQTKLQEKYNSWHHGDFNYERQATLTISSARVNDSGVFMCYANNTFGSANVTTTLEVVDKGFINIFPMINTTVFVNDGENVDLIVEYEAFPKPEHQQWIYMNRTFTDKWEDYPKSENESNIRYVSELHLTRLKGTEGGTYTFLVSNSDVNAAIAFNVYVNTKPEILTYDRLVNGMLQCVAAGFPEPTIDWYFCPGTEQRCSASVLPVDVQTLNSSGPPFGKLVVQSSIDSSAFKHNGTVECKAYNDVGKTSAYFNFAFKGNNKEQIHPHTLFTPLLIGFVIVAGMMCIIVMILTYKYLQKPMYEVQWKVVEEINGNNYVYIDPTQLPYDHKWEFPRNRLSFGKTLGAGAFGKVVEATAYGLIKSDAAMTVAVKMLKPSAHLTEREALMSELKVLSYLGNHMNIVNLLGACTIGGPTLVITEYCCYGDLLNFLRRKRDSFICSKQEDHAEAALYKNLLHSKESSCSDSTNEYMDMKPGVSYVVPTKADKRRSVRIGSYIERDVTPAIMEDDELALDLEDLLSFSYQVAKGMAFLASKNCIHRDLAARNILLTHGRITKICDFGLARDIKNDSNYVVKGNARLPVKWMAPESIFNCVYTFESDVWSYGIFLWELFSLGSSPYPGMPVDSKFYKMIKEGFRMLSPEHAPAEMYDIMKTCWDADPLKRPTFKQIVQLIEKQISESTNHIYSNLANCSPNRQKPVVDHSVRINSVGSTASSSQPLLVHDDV
T1 sequence (P04629 510-781): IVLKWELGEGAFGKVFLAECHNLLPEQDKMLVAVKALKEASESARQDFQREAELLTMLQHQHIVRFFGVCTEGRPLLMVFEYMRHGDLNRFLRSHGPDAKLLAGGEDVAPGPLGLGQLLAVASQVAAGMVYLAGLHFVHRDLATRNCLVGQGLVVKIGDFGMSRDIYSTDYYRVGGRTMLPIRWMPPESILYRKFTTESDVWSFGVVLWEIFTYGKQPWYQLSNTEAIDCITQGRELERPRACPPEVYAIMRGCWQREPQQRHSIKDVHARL

`COc1ccccc1Nc1ncc(Cc2c[nH]c3ncc(Cl)cc23)cn1` [Compound P-3016, [5-(5-Chloro-1H-pyrrolo[2,3-b]pyridin-3-ylmethyl)-pyrimidin-2-yl]-(2-methoxy-phenyl)-amine]: the figures for the IC50 in test [1] and in test [2] were over 10000 nM and under 100 nM, respectively.
In the same order, the values of `CCOc1ncnc2[nH]cc(Cc3ccc(Nc4cnn(CC)c4)nc3F)c12` [Compound P-4012, [5-(4-Ethoxy-7H-pyrrolo[2,3-d]pyrimidin-5-ylmethyl)-6-fluoro-pyridin-2-yl]-(1-ethyl-1H-pyrazol-4-yl)-amine] are under 1000 nM and under 1000 nM.
`COc1ccc(Nc2ncc(Cc3c[nH]c4ncc(C)cc34)cn2)cc1` [Compound P-3021, (4-Methoxy-phenyl)-[5-(5-methyl-1H-pyrrolo[2,3-b]pyridin-3-ylmethyl)-pyrimidin-2-yl]-amine]: the IC50 was under 1000 nM in test [1] and under 10 nM in test [2].
For `COc1ncnc2[nH]cc(Cc3ccc(Nc4ccc(C)nc4)nc3F)c12` [Compound P-4010, [6-Fluoro-5-(4-methoxy-7H-pyrrolo[2,3-d]pyrimidin-5-ylmethyl)-pyridin-2-yl]-(6-methyl-pyridin-3-yl)-amine] the same measures were under 1000 nM and under 1000 nM.
Regarding `Cc1ccc(Nc2ccc(C(=O)c3c[nH]c4ncc(Cl)cc34)c(F)n2)cn1` [Compound P-3044, (5-Chloro-1H-pyrrolo[2,3-b]pyridin-3-yl)-[2-fluoro-6-(6-methyl-pyridin-3-ylamino)-pyridin-3-yl]-methanone], the IC50 in test [1] and in test [2] was under 1000 nM in each case.
For the compound `Cc1ccc(Nc2ccc(Cc3c[nH]c4ncnc(C5CC5)c34)c(F)n2)cn1` [Compound P-4030, [5-(4-Cyclopropyl-7H-pyrrolo[2,3-d]pyrimidin-5-ylmethyl)-6-fluoro-pyridin-2-yl]-(6-methyl-pyridin-3-yl)-amine], the IC50 in test [1] and in test [2] was under 1000 nM in each case.
As for `CCOc1ccc(Nc2ccc(Cc3c[nH]c4ncnc(C)c34)c(F)n2)cn1` [Compound P-4006, (6-Ethoxy-pyridin-3-yl)-[6-fluoro-5-(4-methyl-7H-pyrrolo[2,3-d]pyrimidin-5-ylmethyl)-pyridin-2-yl]-amine], the IC50 in test [1] and in test [2] was under 100 nM throughout.
Regarding `Cc1cnc2[nH]cc(Cc3cnc(Nc4cc(OC(C)C)n[nH]4)nc3)c2c1` [Compound P-3038, (5-Isopropoxy-2H-pyrazol-3-yl)-[5-(5-methyl-1H-pyrrolo[2,3-b]pyridin-3-ylmethyl)-pyrimidin-2-yl]-amine], the IC50 in test [1] and in test [2] was under 1000 nM each time.
As for `CCc1ccc(Nc2ccc(Cc3c[nH]c4ncnc(OC)c34)c(F)n2)cn1` [Compound P-4007, (6-Ethyl-pyridin-3-yl)-[6-fluoro-5-(4-methoxy-7H-pyrrolo[2,3-d]pyrimidin-5-ylmethyl)-pyridin-2-yl]-amine], the IC50 is under 10 nM in test [1] and under 100 nM in test [2].
For the compound `Cc1cnc2[nH]cc(Cc3cnc(Nc4ccc(C(F)(F)F)nc4)nc3)c2c1` [Compound P-3018, [5-(5-Methyl-1H-pyrrolo[2,3-b]pyridin-3-ylmethyl)-pyrimidin-2-yl]-(6-trifluoromethyl-pyridin-3-yl)-amine], the figures for the IC50 in test [1] and in test [2] were under 1000 nM and under 10 nM, respectively.
In the same order, the values of `Cc1cnc2[nH]cc(Cc3cnc(Nc4ccc(C(O)(C(F)(F)F)C(F)(F)F)cc4)nc3)c2c1` [Compound P-3031, 1,1,1,3,3,3-Hexafluoro-2-{4-[5-(5-methyl-1H-pyrrolo[2,3-b]pyridin-3-ylmethyl)-pyrimidin-2-ylamino]-phenyl}-propan-2-ol] are under 10 nM and under 100 nM.
For `Cc1cnc2[nH]cc(Cc3cnc(Nc4ccc(S(C)(=O)=O)cc4)nc3)c2c1` [Compound P-3034, (4-Methanesulfonyl-phenyl)-[5-(5-methyl-1H-pyrrolo[2,3-b]pyridin-3-ylmethyl)-pyrimidin-2-yl]-amine] the same measures were under 100 nM and under 100 nM.
In the same order, the values of `O=C(c1ccc(Nc2ccc(C3CC3)nc2)nc1F)c1c[nH]c2ncccc12` [Compound P-3052, [6-(6-Cyclopropyl-pyridin-3-ylamino)-2-fluoro-pyridin-3-yl]-(1H-pyrrolo[2,3-b]pyridin-3-yl)-methanone] are under 100 nM and under 100 nM.
With `CCc1ccc(Nc2ccc(Cc3c[nH]c4ncnc(OCCOC)c34)c(F)n2)cn1` [Compound P-4016, (6-Ethyl-pyridin-3-yl)-{6-fluoro-5-[4-(2-methoxy-ethoxy)-7H-pyrrolo[2,3-d]pyrimidin-5-ylmethyl]-pyridin-2-yl}-amine], the IC50 in test [1] and in test [2] was under 100 nM in each case.
Regarding `CCn1ccc(Nc2ncc(Cc3c[nH]c4ncc(C)cc34)cn2)n1` [Compound P-3035, (1-Ethyl-1H-pyrazol-3-yl)-[5-(5-methyl-1H-pyrrolo[2,3-b]pyridin-3-ylmethyl)-pyrimidin-2-yl]-amine], the IC50 is under 1000 nM in test [1] and under 100 nM in test [2].
For `COc1ccc(Nc2ccc(Cc3c[nH]c4ncc(C)cc34)c(F)n2)cn1` [Compound P-3019, [6-fluoro-5-(5-methyl-1H-pyrrolo[2,3-b]pyridin-3-ylmethyl)-pyridin-2-yl]-(6-methoxy-pyridin-3-yl)-amine] the same measures were under 100 nM and under 1000 nM.
For `COCCOc1ncnc2[nH]cc(Cc3ccc(Nc4ccc(C)nc4)nc3F)c12` [Compound P-4015, {6-Fluoro-5-[4-(2-methoxy-ethoxy)-7H-pyrrolo[2,3-d]pyrimidin-5-ylmethyl]-pyridin-2-yl}-(6-methyl-pyridin-3-yl)-amine] the same measures were under 1000 nM and under 100 nM.
In the case of `COc1ncnc2[nH]cc(Cc3ccc(Nc4ccc(Cl)nc4)nc3F)c12` [Compound P-4003, (6-Chloro-pyridin-3-yl)-[6-fluoro-5-(4-methoxy-7H-pyrrolo[2,3-d]pyrimidin-5-ylmethyl)-pyridin-2-yl]-amine], the IC50 in test [1] and in test [2] was under 1000 nM throughout.
Consider `CCOc1ncnc2[nH]cc(Cc3ccc(Nc4cccnc4)nc3F)c12` [Compound P-4021, [5-(4-Ethoxy-7H-pyrrolo[2,3-d]pyrimidin-5-ylmethyl)-6-fluoro-pyridin-2-yl]-pyridin-3-yl-amine], for which the IC50 in test [1] is over 1000 nM; in test [2], under 1000 nM.
On to `CCOc1ccc(Nc2ccc(C(=O)c3c[nH]c4ncc(C)cc34)c(F)n2)cn1` [Compound P-3045, [6-(6-ethoxy-pyridin-3-ylamino)-2-fluoro-pyridin-3-yl]-(5-methyl-1H-pyrrolo[2,3-b]pyridin-3-yl)-methanone], for which the IC50 in test [1] is under 100 nM; in test [2], under 1000 nM.
In the same order, the values of `Cc1cnc2[nH]cc(C(=O)c3ccc(Nc4ccc(C)nc4)nc3F)c2c1` [Compound P-3043, [2-Fluoro-6-(6-methyl-pyridin-3-ylamino)-pyridin-3-yl]-(5-methyl-1H-pyrrolo[2,3-b]pyridin-3-yl)-methanone] are under 100 nM and under 1000 nM.
For `CCOc1ccc(Nc2ccc(Cc3c[nH]c4ncnc(C5CC5)c34)c(F)n2)cn1` [Compound P-4026, [5-(4-Cyclopropyl-7H-pyrrolo[2,3-d]pyrimidin-5-ylmethyl)-6-fluoro-pyridin-2-yl]-(6-ethoxy-pyridin-3-yl)-amine] the same measures were under 100 nM and under 1000 nM.
Turning to `CSc1ccc(Nc2ncc(Cc3c[nH]c4ncc(C)cc34)cn2)cc1` [Compound P-3033, [5-(5-Methyl-1H-pyrrolo[2,3-b]pyridin-3-ylmethyl)-pyrimidin-2-yl]-(4-methylsulfanyl-phenyl)-amine], the IC50 in test [1] is under 100 nM; in test [2], under 10 nM.
For `COc1ncnc2[nH]cc(Cc3ccc(Nc4ccc(C5CC5)nc4)nc3F)c12` [Compound P-4004, (6-Cyclopropyl-pyridin-3-yl)-[6-fluoro-5-(4-methoxy-7H-pyrrolo[2,3-d]pyrimidin-5-ylmethyl)-pyridin-2-yl]-amine] the same measures were under 10 nM and under 100 nM.
With `Cc1ccc(Nc2ccc(Cc3c[nH]c4ncc(Cl)cc34)c(F)n2)cn1` [Compound P-3042, [5-(5-Chloro-1H-pyrrolo[2,3-b]pyridin-3-ylmethyl)-6-fluoro-pyridin-2-yl]-(6-methyl-pyridin-3-yl)-amine], the figures for the IC50 in test [1] and in test [2] were under 1000 nM and under 100 nM, respectively.
For `CCOc1ncnc2[nH]cc(Cc3ccc(Nc4ccc(Br)nc4)nc3F)c12` [Compound P-4020, (6-Bromo-pyridin-3-yl)-[5-(4-ethoxy-7H-pyrrolo[2,3-d]pyrimidin-5-ylmethyl)-6-fluoro-pyridin-2-yl]-amine], the IC50 in test [1] is under 1000 nM; in test [2] it was under 100 nM.
For `Cc1cnc2[nH]cc(Cc3cnc(Nc4cc(C(C)(C)C)n[nH]4)nc3)c2c1` [Compound P-3029, (5-tert-Butyl-2H-pyrazol-3-yl)-[5-(5-methyl-1H-pyrrolo[2,3-b]pyridin-3-ylmethyl)-pyrimidin-2-yl]-amine] the same measures were over 1000 nM and under 1000 nM.
`COc1ccc(Nc2ncc(Cc3c[nH]c4ncc(C)cc34)cn2)cn1` [Compound P-3020, (6-Methoxy-pyridin-3-yl)-[5-(5-methyl-1H-pyrrolo[2,3-b]pyridin-3-ylmethyl)-pyrimidin-2-yl]-amine]: the figures for the IC50 in test [1] and in test [2] were under 100 nM and under 10 nM, respectively.
On to `Clc1cnc2[nH]cc(Cc3cnc(NC4CCCC4)nc3)c2c1` [Compound P-3003, [5-(5-Chloro-1H-pyrrolo[2,3-b]pyridin-3-ylmethyl)-pyrimidin-2-yl]-cyclopentyl-amine], for which the IC50 in test [2] was over 1000 nM.

Values taken from patent publication US8901118B2, “Compounds and methods for kinase modulation, and indications therefor” (Plexxikon Inc., priority 2010, dated 2014).
